Measurements as given in PMC9120017, “Inhibition mechanism of the chloride channel TMEM16A by the pore blocker 1PBC” (Nature Communications, 2022).
Where two headings read alike, the source gives them in different places.

Target: T1, mouse TMEM16A mutant I516A (Mus musculus, UniProt Q8BHY3, I516A)
T1 construct: expressed in transfected cells; host or cells: HEK293T
T1 sequence (Q8BHY3 1-960 I516A): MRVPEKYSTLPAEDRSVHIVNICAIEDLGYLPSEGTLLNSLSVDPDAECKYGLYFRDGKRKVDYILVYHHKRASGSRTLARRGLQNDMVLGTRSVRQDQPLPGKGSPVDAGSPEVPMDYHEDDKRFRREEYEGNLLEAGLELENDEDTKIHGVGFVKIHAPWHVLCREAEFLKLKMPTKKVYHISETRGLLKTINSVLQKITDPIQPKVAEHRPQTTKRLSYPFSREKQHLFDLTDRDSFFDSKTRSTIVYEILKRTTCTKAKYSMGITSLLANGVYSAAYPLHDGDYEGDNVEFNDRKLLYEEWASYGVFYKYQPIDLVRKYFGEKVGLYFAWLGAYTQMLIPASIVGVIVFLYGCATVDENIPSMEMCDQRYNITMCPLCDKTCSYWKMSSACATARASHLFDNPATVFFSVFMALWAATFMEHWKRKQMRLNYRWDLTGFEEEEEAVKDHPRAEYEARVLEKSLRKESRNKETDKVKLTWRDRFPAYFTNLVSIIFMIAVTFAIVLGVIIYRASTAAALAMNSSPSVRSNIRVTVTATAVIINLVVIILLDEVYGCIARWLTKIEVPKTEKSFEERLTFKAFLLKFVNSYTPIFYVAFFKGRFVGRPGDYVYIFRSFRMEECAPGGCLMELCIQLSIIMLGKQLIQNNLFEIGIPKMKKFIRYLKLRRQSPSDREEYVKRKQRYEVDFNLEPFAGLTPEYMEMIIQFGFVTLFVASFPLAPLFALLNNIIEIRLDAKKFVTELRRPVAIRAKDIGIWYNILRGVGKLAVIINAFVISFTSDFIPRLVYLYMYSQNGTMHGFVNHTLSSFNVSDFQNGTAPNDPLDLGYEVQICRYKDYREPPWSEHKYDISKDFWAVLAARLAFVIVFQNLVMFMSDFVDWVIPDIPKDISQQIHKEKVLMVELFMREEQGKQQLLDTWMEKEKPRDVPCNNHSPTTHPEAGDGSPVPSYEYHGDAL
Test: Inside-out patch recording of 1PBC block, mutant I516A
Type: cell-based
Conditions: for remaining activity at 1 µM: 1PBC 1; for remaining activity at 1 µM / remaining activity at 3 µM / remaining activity at 10 µM / remaining activity at 30 µM / remaining activity at 100 µM: read-out: fraction of unblocked current; for remaining activity at 3 µM: 1PBC 3; for remaining activity at 10 µM: 1PBC 10; for remaining activity at 30 µM: 1PBC 30; for remaining activity at 100 µM: 1PBC 100
Description: HEK293T cells (ATCC CRL-1573) were maintained in Dulbecco’s modified Eagle’s medium (DMEM; Sigma-Aldrich) supplemented with 10 U ml^−1 penicillin, 0.1 mg ml^−1 streptomycin (Sigma-Aldrich), 2 mM L-glutamine (Sigma-Aldrich), and 10% FBS (Sigma-Aldrich) in a humidified atmosphere containing 5% CO2 at 37 °C. HEK293S GnTI^− cells (ATCC CRL-3022) were maintained in HyClone HyCell TransFx-H medium (GE Healthcare) supplemented with 10 U ml^−1 penicillin, 0.1 mg ml^−1 streptomycin, 4 mM L-glutamine, 0.15% poloxamer 188 (Sigma-Aldrich), and 1% FBS in an atmosphere containing 5% CO2 at 185 rpm at 37 °C. The ac splice variant of mouse TMEM16A (UniProt ID: Q8BHY3), mouse TMEM16B (UniProt ID: Q8CFW1), or mouse TMEM16F (UniProt ID: Q6P9J9) bearing a 3C cleavage site, a Venus YFP, a Myc tag, and a Streptavidin-binding peptide (SBP) downstream of the open reading frame in a modified pcDNA3.1 vector (Invitrogen) were used as described previously[21],[31]. Mutations were introduced using a modified QuikChange method[58] and were verified by sequencing.
HEK293T cells were transfected with 3–4 μg DNA per 6 cm Petri dish using the calcium phosphate co-precipitation method and were used within 24–96 h after transfection. Recordings were performed on inside-out patches excised from HEK293T cells expressing the construct of interest. Patch pipettes were pulled from borosilicate glass capillaries (O.D. 1.5 mm, I.D. 0.86 mm, Sutter Instrument) and were fire-polished with a microforge (Narishige) before use. Pipette resistance was typically 3–8 MΩ when filled with the recording solutions detailed below. Seal resistance was typically 4 GΩ or higher. Voltage-clamp recordings were made using Axopatch 200B, Digidata 1550, and Clampex 10.7 (Molecular Devices). Analog signals were filtered with the in-built 4-pole Bessel filter at 10 kHz and were digitized at 20 kHz. Solution exchange was achieved using a gravity-fed system through a theta glass pipette mounted on an ultra-fast piezo-driven stepper (Siskiyou). […] All recordings were performed at 20 °C.
A symmetrical ionic condition was used throughout. Stock solution with Ca^2+-EGTA contained 150 mM NaCl, 5.99 mM Ca(OH)2, 5 mM EGTA, and 10 mM HEPES at pH 7.40. Stock solution with EGTA contained 150 mM NaCl, 5 mM EGTA, and 10 mM HEPES at pH 7.40. Free Ca^2+ concentrations were adjusted by mixing the stock solutions at the required ratios calculated using the WEBMAXC program (http://web.stanford.edu/~cpatton/webmaxcS.htm). Patch pipettes were filled with the stock solution with Ca^2+-EGTA, which has a free Ca^2+ concentration of 1 mM. 1PBC (ChemBridge) stock was reconstituted in anhydrous DMSO (Sigma-Aldrich) at 100 mM and stored at −20 °C. Working solutions with 1PBC were prepared by serial dilution. Unless otherwise stated, experiments were performed at a saturating Ca^2+ concentration as shown in Supplementary Table 1 and the primary data were corrected for current rundown as described previously[21],[25].
Concentration-response relations, obtained from the ratio of the I-V plots before and after the application of the blocker, were fitted to the Hill equation,1 I/Imax=1/1+IC50/[blocker]^h where I/Imax is the normalized current responses, IC50 defines the concentration at which inhibition is at its half-maximum, and h is the Hill coefficient.

IC50 (0 mV, 2 µM Ca2+): 5.69 µM | remaining activity at 1 µM (0 mV): 81.6% | remaining activity at 1 µM (20 mV): 79% | remaining activity at 1 µM (40 mV): 76.3% | remaining activity at 1 µM (60 mV): 76.1% | remaining activity at 1 µM (80 mV): 76% | remaining activity at 1 µM (100 mV): 78.2% | remaining activity at 1 µM (120 mV): 80.5% | remaining activity at 1 µM (140 mV): 85% | remaining activity at 1 µM (-20 mV): 84.2% | remaining activity at 1 µM (-40 mV): 86.9% | remaining activity at 1 µM (-60 mV): 90.5% | remaining activity at 1 µM (-80 mV): 93.4% | remaining activity at 1 µM (-100 mV): 94.6% | remaining activity at 1 µM (-120 mV): 96.7% | remaining activity at 1 µM (-140 mV): 99.6% | remaining activity at 3 µM (0 mV): 66.1% | remaining activity at 3 µM (20 mV): 63.1% | remaining activity at 3 µM (40 mV): 60.5% | remaining activity at 3 µM (60 mV): 57.3% | remaining activity at 3 µM (80 mV): 57.5% | remaining activity at 3 µM (100 mV): 58.7% | remaining activity at 3 µM (120 mV): 60.2% | remaining activity at 3 µM (140 mV): 62.8% | remaining activity at 3 µM (-20 mV): 69.1% | remaining activity at 3 µM (-40 mV): 74.1% | remaining activity at 3 µM (-60 mV): 78.3% | remaining activity at 3 µM (-80 mV): 81.5% | remaining activity at 3 µM (-100 mV): 84.3% | remaining activity at 3 µM (-120 mV): 86.9% | remaining activity at 3 µM (-140 mV): 88% | remaining activity at 10 µM (0 mV): 37.2% | remaining activity at 10 µM (20 mV): 33.9% | remaining activity at 10 µM (40 mV): 31.3% | remaining activity at 10 µM (60 mV): 30.4% | remaining activity at 10 µM (80 mV): 30.4% | remaining activity at 10 µM (100 mV): 30.4% | remaining activity at 10 µM (120 mV): 31.9% | remaining activity at 10 µM (140 mV): 35.1% | remaining activity at 10 µM (-20 mV): 40.4% | remaining activity at 10 µM (-40 mV): 43.9% | remaining activity at 10 µM (-60 mV): 48.6% | remaining activity at 10 µM (-80 mV): 50.8% | remaining activity at 10 µM (-100 mV): 55.1% | remaining activity at 10 µM (-120 mV): 58% | remaining activity at 10 µM (-140 mV): 60.3% | remaining activity at 30 µM (0 mV): 16.3% | remaining activity at 30 µM (20 mV): 15% | remaining activity at 30 µM (40 mV): 13.7% | remaining activity at 30 µM (60 mV): 12.5% | remaining activity at 30 µM (80 mV): 12.7% | remaining activity at 30 µM (100 mV): 13.1% | remaining activity at 30 µM (120 mV): 14.6% | remaining activity at 30 µM (140 mV): 16.7% | remaining activity at 30 µM (-20 mV): 17.7% | remaining activity at 30 µM (-40 mV): 19.9% | remaining activity at 30 µM (-60 mV): 22.8% | remaining activity at 30 µM (-80 mV): 25.3% | remaining activity at 30 µM (-100 mV): 28% | remaining activity at 30 µM (-120 mV): 31.5% | remaining activity at 30 µM (-140 mV): 34.4% | remaining activity at 100 µM (0 mV): 6.15% | remaining activity at 100 µM (20 mV): 5.12% | remaining activity at 100 µM (40 mV): 5.16% | remaining activity at 100 µM (60 mV): 5.16% | remaining activity at 100 µM (80 mV): 5.57% | remaining activity at 100 µM (100 mV): 6.35% | remaining activity at 100 µM (120 mV): 6.87% | remaining activity at 100 µM (140 mV): 7.57% | remaining activity at 100 µM (-20 mV): 7.18% | remaining activity at 100 µM (-40 mV): 7.63% | remaining activity at 100 µM (-60 mV): 9.24% | remaining activity at 100 µM (-80 mV): 10.6% | remaining activity at 100 µM (-100 mV): 12.4% | remaining activity at 100 µM (-120 mV): 14.7% | remaining activity at 100 µM (-140 mV): 17.2% | IC50 (20 mV, 2 µM Ca2+): 4.91 µM | IC50 (40 mV, 2 µM Ca2+): 4.32 µM | IC50 (60 mV, 2 µM Ca2+): 3.97 µM | log-fold IC50 (change of mutant vs WT) (80 mV): 0.3402 | IC50 (80 mV, 2 µM Ca2+): 4 µM | IC50 (100 mV, 2 µM Ca2+): 4.22 µM | IC50 (120 mV, 2 µM Ca2+): 4.6 µM | IC50 (140 mV, 2 µM Ca2+): 5.41 µM | IC50 (-20 mV, 2 µM Ca2+): 6.57 µM | IC50 (-40 mV, 2 µM Ca2+): 7.87 µM | IC50 (-60 mV, 2 µM Ca2+): 9.65 µM | IC50 (-80 mV, 2 µM Ca2+): 11 µM | IC50 (-100 mV, 2 µM Ca2+): 12.9 µM | IC50 (-120 mV, 2 µM Ca2+): 15 µM | IC50 (-140 mV, 2 µM Ca2+): 17 µM | IC50 (I516A, V 0 mV): 5.69 µM | IC50 (I516A, V 20 mV): 4.91 µM | IC50 (I516A, V 40 mV): 4.32 µM | IC50 (I516A, V 60 mV): 3.97 µM | IC50 (I516A, V 80 mV): 4 µM | IC50 (I516A, V 100 mV): 4.22 µM | IC50 (I516A, V 120 mV): 4.6 µM | IC50 (I516A, V 140 mV): 5.41 µM | IC50 (I516A, V -20 mV): 6.57 µM | IC50 (I516A, V -40 mV): 7.87 µM | IC50 (I516A, V -60 mV): 9.65 µM | IC50 (I516A, V -80 mV): 11 µM | IC50 (I516A, V -100 mV): 12.9 µM | IC50 (I516A, V -120 mV): 15 µM | IC50 (I516A, V -140 mV): 17 µM
SMILES: N#Cc1c(C(F)(F)F)cc(O)n2c1nc1ccccc12 [1PBC]
